# Assay results from article PMC11172314, “Towards Enhanced Tunability of Aqueous Biphasic Systems: Furthering the Grasp of Fluorinated Ionic Liquids in the Purification of Proteins” (International Journal of Molecular Sciences, 2024).
# Columns and labels:
# Design in all cases: species or system chicken
# lysozyme (Lys) [1] = biological target: T1, lysozyme (Lys) (Gallus gallus, UniProt P00698); test: Turbidimetry (transmittance) of lysozyme solutions; details: 0.2 mg/mL Lys, IL 0.1–120 mM, 25 °C
# T1 construct: Lyophilized lysozyme from chicken egg white, ≥90% purity; purchased Millipore (Darmstadt, Germany); host or cells: chicken egg white (natural source)
# T1 sequence (P00698 19-147): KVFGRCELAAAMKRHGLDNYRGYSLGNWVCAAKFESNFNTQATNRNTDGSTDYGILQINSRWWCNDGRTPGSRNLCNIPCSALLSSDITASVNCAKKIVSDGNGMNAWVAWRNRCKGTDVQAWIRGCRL
# Source text: Monitoring the changes in turbidity offers an insight into the protein–ionic liquid aqueous solution interactions, which allows for the assessment of the ionic liquid functionalization of the fluorinated IL vs. the mere fluoro-contaning IL ([C2C1Im][C4F9SO3] vs. [C4C1Im][CF3SO3]). […] In opposition, [C2C1Im][C4F9SO3] […] The results of Rather et al. also confirmed the significant composition and concentration dependence of the lysozyme–surfactant IL interactions, mainly in the CAC concentration regime. Additionally, an increase in turbidity is observed for both [C4C1Im][CF3SO3] and [C2C1Im][C4F9SO3] at concentrations below the first CAC of the FIL (only monomers exist in solution for both ionic liquids) in comparison with lysozyme in water (snapshots in Figure 7A,B). […]
# Both turbidimetry and UV-Vis absorbance assays were carried out at 25 °C on a double-beam UV6300PL UV-Vis spectrophotometer (VWR, Leuven, Belgium) with a pair of 10 mm path length quartz cuvettes of 400 µL sample volume. […] For absorbance measurements, all spectra were acquired with 190 to 400 nm wavelength range. […] Aqueous solutions of [C4C1Im][CF3SO3] and [C2C1Im][C4F9SO3] were analyzed with concentrations varying from 0.1 to 120 mM.
# lysozyme (Lys) [2] = biological target: T1, lysozyme (Lys); test: Intrinsic (tryptophan) fluorescence of lysozyme; details: 0.2 mg/mL Lys, excitation 295 nm, component 0.1–800 mM, 25 °C
# Source text: (FIL), [C4C1Im][CF3SO3] (mere fluoro-containing IL), and [ N1112(OH) ][H2PO4] (globular protein stabilizer). […] Even though large changes in protein conformation can modify the intensity of tyrosine and phenylalanine fluorescence signals, their low extinction coefficients and quantum yields, as well as their relative lower sensitivity to environmental changes, make them a less appealing candidate. Tryptophan is frequently found concealed in the hydrophobic core of proteins due to its aromatic nature. […] The tryptophan release energy is particularly sensitive to the polarity (and dynamics) of the environment because the excited-state dipole moment is quite large. Reactions to denaturation, substrate binding, subunit association, and conformational transitions create variations in the tryptophan emission spectra. The spectrum shift generally known as blue shift, a shift of the maximum emission towards smaller wavelengths, denotes that the aromatic residue is buried in the native structure of the protein [67]. […] Furthermore, the amount of exposure of the fluorophores to the solvent is associated with the increase or decrease in the intensity of the emission spectrum. […] [C4C1Im][CF3SO3] and [ N1112(OH) ][H2PO4] […] Variations in lysozyme spectra are caused by ligand-induced changes in the microenvironment of tryptophan residues, either by shifting the maximum peak wavelength (blue or red shift) or by altering peak intensities. These changes can be used as a measure of the effect of the ABS phase-forming components on protein folding and unfolding.
# Intrinsic fluorescence spectroscopy measurements of lysozyme’s tryptophan residues were carried out on a Spex Horiba Jobyin Yvon spectrofluorometer (HORIBA Jobin Yvon, France) using a 10 mm path length quartz cuvette. […] The excitation and emission slit widths of 2 nm were used for all the measurements. Maximum fluorescence values were attained as the average of three measurements.
# lysozyme (Lys) [3] = biological target: T1, lysozyme (Lys); test: DSC thermal stability (Tm, ΔH) of lysozyme in water, component solutions and ABS phases; details: 1.0 mg/mL Lys
# Source text: Differential scanning calorimetry (DSC) measurements (Section 3) were used to determine the melting temperature ( Tm ) and enthalpy ( Δ H) of lysozyme, at which both the folded and unfolded states coexist at equilibrium. DSC outputs, thermal transitions at the nanoscale level, allow to analyze alterations on proteins structure and stability, providing sharp perceptions of the factors affecting stability, as well as of the folding and unfolding processes. […] (DSC curve depicted in Figure S16 of Supplementary Materials).
# FIL (BP#8, BP#10, BP#11, and BP#12). […] For the system based on [C4C1Im][CF3SO3]
# The thermal stability of lysozyme was analyzed in water, ABS phase-forming compounds aqueous solutions, and partition ABS phases. […] Partition lysozyme on each phase from the prepared biphasic points as well as recovered protein from the FIL-rich phase were also addressed for a selection of studied systems listed in Table 1. We acquired thermograms using a TA^TM Nano DSC from TA Instruments. All scans were conducted in a 300 μ L capillary cell through a temperature ramp from 20 to 90 °C at a heating rate of 1 °C/min and 3 atm pressure. All samples were degassed for 7 min at 20 °C, with the exception of FIL-containing samples owing to their surfactant properties. After subtracting the polynomial fit baselines, raw thermogram curve data were fitted with the TwoStateScaled model using NanoAnalyze TA Instruments software, version 3.12, to determine the protein thermal transition temperatures in each sample. During nanoDSC scans, Δ H and Δ S were obtained and utilized to determine Δ G ( Δ G = Δ H − T Δ S).
smiles,measurement,setting,value
CCCCn1cc[n+](C)c1.O=S(=O)([O-])C(F)(F)F [[C4C1Im][CF3SO3]],Turbidity (transmittance) of Lys solution with increasing IL concentration,lysozyme (Lys) [1],steady turbidity profile
same,Lys fluorescence emission intensity with increasing component concentration,lysozyme (Lys) [2],increase in Lys fluorescence emission intensity
same,Lys maximum emission wavelength with increasing component concentration,lysozyme (Lys) [2],red shift from 334 nm to 368 nm
same,Lys Tm,lysozyme (Lys) [3]; 0.1 mM component in water,74.50 °C
same,Lys ∆H,lysozyme (Lys) [3]; 0.1 mM component in water,441.3 kJ/mol
same,Lys Tm,lysozyme (Lys) [3]; 1 mM component in water,75.54 °C
same,Lys ∆H,lysozyme (Lys) [3]; 1 mM component in water,438.1 kJ/mol
same,Lys Tm,lysozyme (Lys) [3]; 5 mM component in water,74.64 °C
same,Lys ∆H,lysozyme (Lys) [3]; 5 mM component in water,404.6 kJ/mol
same,Lys Tm,lysozyme (Lys) [3]; 10 mM component in water,74.16 °C
same,Lys ∆H,lysozyme (Lys) [3]; 10 mM component in water,395.6 kJ/mol
